These results are taken from ChEMBL document CHEMBL3832549, “DailyMed|setid=7633c9b3-dfb5-446f-a260-e44b6e48afa2 | BUDESONIDE- budesonide capsule|Carilion Materials Management”.

Series [1] can be described thus: (§1) Evaluation of pharmacokinetic parameters for Budesonide following single oral administration of Budesonide capsules (enteric coated) to healthy subjects and/or patients with Crohn's disease. The series is classed as ADME, organism-based. On the set-up: dose 9 mg, route oral. Particulars: human, in vivo, dosed compound id 9, dosed compound name BUDESONIDE, regimen Single dose, tissue Plasma.

In series [2] the test system is Homo sapiens. The description is as §1. Type of series: ADME, organism-based. Details: dose 9 mg, route oral. To be noted: in vivo, po, dosed compound id 9, dosed compound name BUDESONIDE, gender male and female, regimen Single dose, tissue Plasma.
Where [3] appears, read: po, 9 mg, gender male and female.

As for `CCCC1O[C@@H]2C[C@H]3[C@@H]4CCC5=CC(=O)C=C[C@]5(C)[C@H]4[C@@H](O)C[C@]3(C)[C@]2(C(=O)CO)O1` (stereo not given in full) [BUDESONIDE], the Tmax in series [1] (9 mg, route oral) is 0.5 to 10 h. Also, in series [1] (setting [3]), the AUC amounted to 0.03 µM·h and the Cmax is 5 nM. The fraction unbound in series [1] (po, at 9 mg, gender male and female, route oral, read-out: Protein binding) lay in the range of 0.1 to 0.15. In series [2], this compound came in with a Vd of 2.2 to 3.9 L/kg.
